Reference: article PMC8143347, “Metabolism and Interspecies Variation of IMMH-010, a Programmed Cell Death Ligand 1 Inhibitor Prodrug” (Pharmaceutics, 2021)

What was measured:
[1] = Metabolism in human liver S9 fractions; assay type: in vitro ADME; conditions: human, monkey, dog and rat liver S9 incubations of IMMH-010 10 μM
Experimental: IMMH-010 metabolism was compared in human, monkey, dog, and rat liver S9 homogenates. IMMH-010 (10 μM) was incubated with liver S9 homogenate protein (0.5 mg protein/mL) and a reduced nicotinamide adenine dinucleotide phosphate (NADPH) regenerating system in a final volume of 0.2 mL Tris-HCl buffer (50 mM, pH 7.4) containing 5 mM MgCl2. The reactions were performed in triplicate. After 2 min of preincubation at 37 °C, reactions were initiated by the addition of IMMH-010 (10 μM). The samples were collected 0, 5, 10, and 20 min after incubation, 2 volumes of acetonitrile were added to terminate the reaction. After vortexing and centrifugation, IMMH-010, YPD-29B, M3, and M4 in the supernatant were analyzed by LC-MS/MS.
(§1) All statistics were calculated using GraphPad Prism 8.0 software (San Diego, CA, USA) designed for one-way ANOVA. Pharmacokinetic parameters were calculated with a non-compartmental analysis using WinNonlin Version 6.3 (Pharsight, Mountain View, CA, USA). ADMET predictor V10.0 (Simulations Plus, Inc., Lancaster, CA, USA) and Microsoft Excel (Microsoft, Redmond, WA, USA) were used to process the data (i.e., half-life (t1/2) and hepatic clearance (CLhep) determination). Data were expressed as means ± standard deviations (SD). Results were considered statistically significant if the p-value <0.05, <0.01 and <0.001.

[2] = tested on: cDNA-expressed human CYPs and FMOs; test: IMMH-010 metabolism by cDNA-expressed human CYPs and FMOs; assay type: in vitro ADME; conditions: IMMH-010 10 µM, 50 pmol enzyme, 30 min, NADPH
Experimental: cDNA-expressed human CYPs were also used to investigate the enzymes mediating IMMH-010 metabolism. IMMH-010 (10 µM) was incubated individually with 50 pmol of 10 individual cDNA-expressed human CYPs (CYP1A1, CYP1A2, CYP2A6, CYP2B6, CYP2C9, CYP2C19, CYP2D6, CYP2E1, CYP2J2, or CYP3A4) and three cDNA-expressed human FMO enzymes (FMO1, FMO3, and FMO5) at 37 °C for 30 min. An NADPH regeneration system was added to initiate the reactions. Probe substrates of the CYPs were used as the positive controls. Incubations without NADPH served as the negative controls. All reactions were carried out in a final volume of 0.2 mL Tris-HCl buffer (50 mM, pH 7.4) containing 5 mM MgCl2 and conducted in triplicate. All incubations were terminated by 2 volumes of acetonitrile. After centrifugation at 14,000 rpm for 5 min, the samples were analyzed by LC-MS/MS.

[3] = Identification of IMMH-010 metabolites in rat urine, bile and feces; assay type: in vivo; conditions: after oral IMMH-010 maleate 5 mg/kg
Experimental: After oral administration of IMMH-010 maleate (5 mg/kg), two rats were housed in metabolic cages to collect urine and feces samples for 24 h. Feces samples were homogenized with methanol at 1:10 (w/v) and urine samples were diluted 10-fold in methanol. Additionally, two rats were bile duct cannulated under isoflurane anesthesia. After oral administration of IMMH-010 maleate (5 mg/kg), bile samples were collected over 0–2 h after dosing.
LC-MS was performed using a Thermo Scientific Q Exactive HF hybrid quadrupole-Orbitrap mass spectrometer. Reverse-phase liquid chromatography was performed on a Zorbax C18 column (100 × 2.1 mm, 3.5 μm). Mobile phase A was 0.1% aqueous formic acid and mobile phase B was 0.1% formic acid in methanol. The mobile phase was delivered with the following gradient elution profile: 0 min, 10% B; 15 min, 40% B; 17–19 min, 100% B; 20–23 min, 10% B. The total runtime for each injection was 23 min. The flow rate was 0.3 mL/min, and the column oven was maintained at 30 °C.
The analysis was performed in full mass spectrometry with data-dependent tandem mass spectrometry (MS/dd-MS^2) mode. For a full mass spectrometry scan, the selected scan range was from m/z 100 to 500, the resolution was 70,000, and the automatic gain control (AGC) target was set to 1.0 × 10^6 with a maximum injection time (IT) of 100 ms. For the dd-MS^2 scan, the fragmentation mass spectra were recorded at a mass resolving power of 17,500 fwhm with a quadrupole isolation window of 1.5 m/z for precursor ions. The AGC target was 2.0 × 10^5 and the maximum IT was 50 ms.
Xcalibur 4.1 software (Thermo Fisher Scientific, San Jose, CA, USA) was used for instrument control and data processing. Compound Discover 2.0 software was used for metabolite identification.

[4] = IMMH-010 stability in human plasma; assay type: in vitro ADME; conditions: 10 μM, after 1 h of incubation
Experimental: (§2) IMMH-010 hydrolysis was investigated in human, monkey, rat, and mouse plasma. […] IMMH-010 (10 μM) was incubated in rat or mouse plasma (0.2 mL) at 4 °C for 60 min. The experiments were performed in triplicate. The reactions were initiated by the addition of IMMH-010 (10 μM). After incubation, the reactions were stopped by adding 2 volumes of ice-cold acetonitrile. After vortexing and centrifuging, the concentrations of IMMH-010 and YPD-29B in the supernatant were determined by liquid chromatography with tandem mass spectrometry (LC-MS/MS). The compound olmesartan (10 μM), a substrate of paraoxonase 1, was set as the positive control.

[5] = IMMH-010 stability in monkey plasma; assay type: in vitro ADME; conditions: 10 μM, after 1 h of incubation
Experimental: as §2

[6] = IMMH-010 stability in rat plasma; assay type: in vitro ADME; conditions: 10 μM, after 1 h of incubation
Experimental: (§3) IMMH-010 hydrolysis was investigated in human, monkey, rat, and mouse plasma. IMMH-010 (1 μM) was incubated in human, monkey, or […] plasma (0.2 mL) at 37 °C for 120 min. IMMH-010 (10 μM) was incubated in rat or mouse plasma (0.2 mL) at 4 °C for 60 min. The experiments were performed in triplicate. The reactions were initiated by the addition of IMMH-010 (10 μM). After incubation, the reactions were stopped by adding 2 volumes of ice-cold acetonitrile. After vortexing and centrifuging, the concentrations of IMMH-010 and YPD-29B in the supernatant were determined by liquid chromatography with tandem mass spectrometry (LC-MS/MS). The compound olmesartan (10 μM), a substrate of paraoxonase 1, was set as the positive control.

[7] = IMMH-010 stability in mouse plasma; assay type: in vitro ADME; conditions: 10 μM, after 1 h of incubation
Experimental: as §3

[8] = Plasma and tumor PK in B16F10 melanoma xenograft mice; assay type: in vivo, mouse
Experimental: (§4) After the final dose, tumor and blood samples treated with IMMH-010 maleate (5 mg/kg) were collected over 72 h. Blood was exposed in an EP tube containing 500 mM NaF and 0.5% heparin sodium. Plasma samples were obtained by centrifugation, and tumor tissues were homogenized with 3 volumes (w/v) of saline on ice. The concentration of IMMH-010 and YPD-29B in plasma and tumor samples was quantitated by an LC-MS/MS method.
(§5) LC-MS/MS was performed using a triple quadrupole mass spectrometer (API 4000, AB Sciex, Framingham, MA, USA) with an ultra-performance liquid chromatography system (LC-30A, Shimadzu, Kyoto, Japan). Analyst 1.6.2 software (AB Sciex) was used for data acquisition and analysis. Mobile phase A was 1 mM ammonium acetate and mobile phase B was methanol. The mobile phase was delivered with the following gradient elution profile: 0–2.8 min, 70% B; 2.9 min, 85% B; 3 min, 90% B; 3.1–6.8 min, 100% B; 6.9–12 min, 70% B. The flow rate was 0.3 mL/min, and the column oven was maintained at 35 °C. The specific transitions monitored were 641.3 → 494.2 for IMMH-010, 597 → 155 for YPD-29B, 512 → 247 for M3, and 524 → 246 for M4.
as §1

[9] = Plasma and tumor PK in MC38 colon cancer xenograft mice; assay type: in vivo, mouse
Experimental: as §4, §5, §1

[10] = PK study in male cynomolgus monkeys; assay type: in vivo, cynomolgus monkey; conditions: single oral IMMH-010 maleate 5 mg/kg
Experimental: IMMH-010 maleate was suspended with 0.5% carboxymethyl cellulose to make a 1 mg/mL suspension for PO gavage. Four male cynomolgus monkeys received a single oral dose of IMMH-010 maleate (5 mg/kg). Serial blood samples were collected upto 48 h. The plasma was separated and the plasma concentrations of IMMH-010 and YPD-29B were determined by LC-MS/MS.
as §5, §1

[11] = Metabolism in human liver microsomes; assay type: in vitro ADME; conditions: NADPH-dependent
Experimental: (§6) To compare the differences in IMMH-010 metabolism between the liver and intestine, IMMH-010 (10 μM) was incubated with rat liver and intestinal S9 homogenate protein (1 mg protein/mL) and with human liver and intestinal microsomes (0.2 mg protein/mL) in a final volume of 0.2 mL Tris-HCl buffer (50 mM, pH 7.4) containing 5 mM MgCl2. The incubations were performed in duplicate in the presence and absence of an NADPH regenerating system. After 2 min preincubation at 37 °C, reactions were initiated by the addition of IMMH-010 (10 μM). Incubations were terminated by acetonitrile at 0, 10, and 20 min. IMMH-010, YPD-29B, M2, and M3 were quantified by LC-MS/MS assay. Midazolam (10 μM, a substrate of CYP3A4) was set as the positive control.

[12] = Metabolism in human intestinal microsomes; assay type: in vitro ADME; conditions: NADPH-dependent
Experimental: as §6

What does the source list for `O=C(O)c1cc(Cl)c(OCc2cccc(-c3ccccc3)c2Br)cc1OCc1cccnc1` [M4]?
amount of minor metabolite formed [1]: < 3%; formation of the metabolite in CYP and FMO incubations [2]: not detected; metabolite in rat feces and bile [3]: detected

Which “decrease of control compound in plasma” value [4] does the source give for `CCCc1nc(C(C)(C)O)c(C(=O)O)n1Cc1ccc(-c2ccccc2-c2nnn[nH]2)cc1` [olmesartan, reference compound] here?
The value was “more than 80%”.

What about the “decrease of control compound in plasma” value [5] of the same compound?
The value was “more than 80%”.

And the “decrease of control compound in plasma” value [6]?
The value was “more than 80%”.

What about the “decrease of control compound in plasma” value [7] of the same compound?
Its value is “more than 80%”.

With `O=C(O)[C@H](CO)NCc1cc(Cl)c(OCc2cccc(-c3ccccc3)c2Br)cc1OCc1cccnc1` [YPD-29B] as the compound, how does the “metabolite in rat feces and bile” value [3] read?
The value was “detected”.

And the “metabolite in rat urine” value ([3]; 24 h urine)?
Its value is “found”.

And the “area under the plasma concentration versus time curve (AUC)” value ([8]; B16F10 mice, IMMH-010 maleate 5 mg/kg PO)?
The value was roughly 69.9 ng·h/mL.

What about the half-life ([8]; C57BL/6, mouse, plasma, B16F10 mice, IMMH-010 maleate 5 mg/kg PO, read-out: elimination half-life (t1/2β) in plasma (converted)) of the same compound?
The half-life was 1.61 h.

What about the Tmax ([8]; C57BL/6, mouse, plasma, B16F10 mice, IMMH-010 maleate 5 mg/kg PO, read-out: mean time of peak plasma concentration (converted)) of the same compound?
The Tmax was 0.25 h.

What about the Cmax ([8]; C57BL/6, mouse, plasma, B16F10 mice, after last oral dose of IMMH-010 maleate 5 mg/kg for 19 days, read-out: mean peak concentration (Cmax) in plasma) of the same compound?
Its Cmax is 42.6 ng/mL.

What about the Kp ([8]; C57BL/6, mouse, tumor and plasma, B16F10 mice, IMMH-010 maleate 5 mg/kg PO, read-out: tissue/plasma ratio (AUCtumor/AUCplasma)) of the same compound?
The Kp was 2.1.

What about the half-life ([8]; C57BL/6, mouse, tumor, B16F10 mice, IMMH-010 maleate 5 mg/kg PO, read-out: t1/2β in tumor (converted)) of the same compound?
The half-life was 12.4 h.

What about the Tmax ([8]; C57BL/6, mouse, tumor, B16F10 mice, IMMH-010 maleate 5 mg/kg PO, read-out: time of maximum concentration in the tumor) of the same compound?
Its Tmax is 0.25 to 1 h.

What about the “t1/2β in tumors relative to plasma” value ([8]; range over B16F10 and MC38 xenograft mice) of the same compound?
Its value is 7.6–25 times.

What about the half-life ([9]; C57BL/6, mouse, plasma, IMMH-010 maleate 5 mg/kg PO, read-out: elimination half-life (t1/2β) in plasma (converted)) of the same compound?
The half-life was 1.76 h.

And the Tmax ([9]; C57BL/6, mouse, plasma, IMMH-010 maleate 5 mg/kg PO, read-out: mean time of peak plasma concentration (converted))?
Its Tmax is 0.25 h.

And the Cmax ([9]; C57BL/6, mouse, plasma, after last oral dose of IMMH-010 maleate 5 mg/kg for 19 days, read-out: mean peak concentration (Cmax) in plasma)?
Its Cmax is 64.4 ng/mL.

What about the Kp ([9]; C57BL/6, mouse, tumor and plasma, IMMH-010 maleate 5 mg/kg PO, read-out: tissue/plasma ratio (AUCtumor/AUCplasma)) of the same compound?
The Kp was 2.4.

What about the half-life ([9]; C57BL/6, mouse, tumor, IMMH-010 maleate 5 mg/kg PO, read-out: t1/2β in tumor (converted)) of the same compound?
The half-life was 45 h.

And the Tmax ([9]; C57BL/6, mouse, tumor, IMMH-010 maleate 5 mg/kg PO, read-out: time of maximum concentration in the tumor)?
Its Tmax is 0.25 to 1 h.

And the “area under the plasma concentration versus time curve (AUC)” value ([9]; IMMH-010 maleate 5 mg/kg PO)?
Its value is roughly 69.9 ng·h/mL.

What about the AUC ([10]; cynomolgus monkey, plasma) of the same compound?
The AUC was 186 ng·h/mL.

And the Cmax ([10]; cynomolgus monkey, plasma)?
The Cmax was 35.5 ng/mL.

What about the half-life ([10]; cynomolgus monkey, plasma, read-out: mean t1/2β in plasma (converted)) of the same compound?
Its half-life is 9 h.

And the Tmax ([10]; cynomolgus monkey, plasma, read-out: observed time to peak concentration)?
Its Tmax is no more than 1.5 h.

What about the “molar AUC ratio of YPD-29B to IMMH-010” value [10] of the same compound?
Its value is 4.17.

Which “amount of minor metabolite formed” value [1] does the source give for `OCc1cc(Cl)c(OCc2cccc(-c3ccccc3)c2Br)cc1OCc1cccnc1` [M3] here?
The value was less than 3%.

And the “transformation ratio of IMMH-010 to this metabolite” value (“transformation ratio” for short) [11]?
The value was less than 2%.

What about the “transformation ratio” value [12] of the same compound?
Its value is less than 2%.

What about the “enzyme with the highest metabolic activity for formation of the metabolite” value [2] of the same compound?
The value was “CYP2D6”.

And the “metabolite in rat feces and bile” value [3]?
The value was “detected”.

With `O=Cc1cc(Cl)c(OCc2cccc(-c3ccccc3)c2Br)cc1OCc1cccnc1` [M2] as the compound, how does the “transformation ratio” value [11] read?
The value was less than 2%.

And the “transformation ratio” value [12]?
The value was less than 2%.

And the “enzyme with the highest metabolic activity for formation of the metabolite” value [2]?
Its value is “CYP2D6”.

And the “metabolite in rat feces and bile” value [3]?
The value was “detected”.
